Measured values: US20120083473A1, “TREATMENT OF CONDITIONS BY TOLL-LIKE RECEPTOR MODULATORS” (priority 2010, published 2012)
One block for each compound: values may come before it.

How the values were obtained:
[1] = system: murine peritoneal macrophages (PEC); experiment: Dose-response of M1 and M2 gene expression in PEC (RT PCR); assay type: cell-based, mice; settings: PECs treated 4 hours or 20 hours with increased concentrations
Protocol: A third group of experiments was performed to investigate the dose-response effects of TMX, its potency as compared to classical inflammatory signals (e.g. LPS) and the activation of selected transcription factors playing an established role in tolerance, as well as in the induction of M1/M2 polarized inflammatory programs. PECs treated for 4 hours or 20 hours with 100 ng/mlof LPS or increased concentrations of TMX or 1V209 were analyzed by RT PCR for the expression of representative M1 (TNFα, IL-12p40) and M2 (IL-10, TGFβ) genes. […] In this experiment, as compared to 1V209, TMX is a lower inducer of M1 genes expression.
Cell Culture and treatments. Peritoneal exudate cells (PEC) were harvested from mice injected with 1 ml of 3% (w/v) thioglycollate medium (Difco, Detroit, Mich.) 4 days prior to isolation. PECs were incubated in RPMI 1640 medium, containing 10% fetal bovine serum, 2 mM glutamine and 100 U/ml of penicillin-streptomycin. The concentration for the different treatments were as follows: LPS (100 ng/ml) (Lipopolysaccharide from Salmonella Abortus Equi S-form, Alexis), CpG (1 μg/ml), Pam3CSK (2 μg/ml), Poly I:C (10 μg/ml), Loxorubine (100 μM), flagellin (100 ng/ml) IL-1β (20 ng/ml), TNF (20 ng/ml), IL-10 (20 ng/ml) (Peprotech), IFNγ (200 U/ml) (Peprotech). To induce TMX tolerance, cells were incubated in the presence of TMX (10 μM or 1 μM) for 20 hrs, washed and maintained in RPMI medium for 2 hrs and then re-challenged with TMX (10 μM) for 4 hrs. To induce TMX-tolerization (T/M) cells were treated with TMX for 20 hrs, washed and then maintained in medium for additional 6 hours, without TMX re-challenge. To induce M1-activation, cells were incubated in medium for 20 hrs, washed, left in medium for 2 hrs and finally stimulated with TMX (10 μM) for 4 hrs. Control cells (M/M) were cultured in medium for the entire period of the experiment. For gene expression analysis, total RNA was extracted from TMX treated and untreated cells with trizol (Invitrogen), according to the manufacturer's instructions. To analyze cytokines and chemokines production supernatants were collected 24 hrs after the second challenge with TMX.
(§1) Real-Time PCR. Total RNA was purified as previously described. Briefly, reverse transcription from 1 μg of RNA was performed using cDNA Archive kit (Applied Biosystem, NJ, USA). Real time PCR was performed using Power Syber Green PCR Master Mix (Applied Biosystem, NJ, USA) and detected by 7900HT Fast Real-Time System (Applied Biosystem, NJ, USA). Data were processed using the SDS2.2.2 software (Applied Biosystem, NJ, USA). Results were normalized to the expression of the housekeeping gene β-actin and then expressed as folds of upregulation, with respect to the control cell population.

human monocytes (Mo) = experiment: M1/M2 gene expression in human monocytes (Real-Time PCR); assay type: cell-based; settings: excluding Mo from one healthy donor
Protocol: To evaluate the effects of TMX on human cell activation, monocytes were isolated from buffy coats obtained from four different healthy donors. With respect to macrophage tolerance, cells were treated with Compound 2 (10 microM) up to 20 hours and then re-challenged with agonists/ligands of different TLRs (TLR2, TLR4, TLR5, TLR9, TLR7, etc. . . . ), including the TLR7 unconjugated ligand 1V209 (free pharmacophore) at a concentration of 10 microM.
Cell Culture and treatments. Monocytes (Mo) were obtained from buffycoats collected from healthy donors as previously described (Porta C et al, PNAS 2009). Cells were incubated in RPMI 1640 medium, containing 10% fetal bovine serum, 2 mM glutamine and 100 U/ml of penicillin-streptomycin. The concentrations for the different treatments were as follows: LPS (100 ng/ml) (Lipopolysaccharide from Salmonella Abortus Equi S-form, Alexis), CpG (1 microg/ml), Pam3CSK (2 microg/ml), Poly I:C (10 microg/ml), Loxorubine (100 microM), flagellin (100 ng/ml). To induce TMX tolerance, cells were incubated in the presence of TMX (10 microM) for 20 hrs, washed and maintained in RPMI medium for 2 hrs and then re-challenged with TMX (10 microM) for 4 hrs. To induce TMX-tolerization (T/M) cells were treated with TMX for 20 hrs, washed and then maintained in medium for additional 6 hours, without TMX re-challenge. To induce M1-activation cells were incubated in medium for 20 hrs, washed, left in medium for 2 hrs and finally stimulated with TMX (10 microM) for 4 hrs. Control cells (M/M) were cultured in medium for the entire period of the experiment. For gene expression analysis, total RNA was extracted from TMX treated and untreated cells with trizol (Invitrogen), according to the manufacturer's instructions. To analyze cytokines and chemokines production supernatants were collected 24 hrs after the second challenge with TMX.
as §1, with “from 1 microgram of RNA” for “from 1 μg of RNA”, “performed using a cDNA Archive” for “performed using cDNA Archive”, “housekeeping gene 8-actin and then” for “housekeeping gene β-actin and then”

[2] = PK analysis after i.v. administration in mice; assay type: in vivo
[3] = Dissolution in suitable solvents for testing; assay type: physicochemical

SMILES: COCCOc1nc(N)c2[nH]c(=O)n(Cc3ccc(C(=O)O)cc3)c2n1 [Compound 1V209, 4-((6-amino-2-(2-methoxyethoxy)-8-oxo-7H-purin-9(8H)-yl)methyl)benzoic acid, reference compound]
- induction of both M1 and M2 gene expression [1]: dose-dependent induction
- potency as compared to Compound 2 in terms of induction of both M1 and M2 gene expression (human monocytes (Mo)): higher potency

- AUC in comparison with Compound 3 [2]: lower
- Cmax in comparison with Compound 3 [2]: lower
- clearance in comparison with Compound 3 [2]: higher
- half life in comparison with Compound 3 [2]: longer
SMILES: COCCOc1nc(N)c2nc(O)n(Cc3ccc(C(=O)NCCOCCOCCOCCOCCOCCOCCOCCOCCOCCOCCn4cc(CCC(=O)O)nn4)cc3)c2n1 [Compound 6, 3-(1-(1-(4-((6-amino-8-hydroxy-2-(2-methoxyethoxy)-9H-purin-9-yl)methyl)phenyl)-1-oxo-5,8,11,14,17,20,23,26,29,32-decaoxa-2-azatetratriacontan-34-yl)-1H-1,2,3-triazol-4-yl)propanoic acid]

- dissolution in suitable solvents for testing [3]: difficulty in dissolution
SMILES: CCCCCCCC/C=C\CCCCCCCC(=O)OCC(COP(=O)(O)OCCNC(=O)c1ccc(Cn2c(=O)[nH]c3c(N)nc(OCCOC)nc32)cc1)OC(=O)CCCCCCC/C=C\CCCCCCCC (stereo not shown) [compound (6), 2-(4-((6-amino-2-(2-methoxyethoxy)-8-oxo-7H-purin-9(8H)-yl)methyl)benzamido)ethyl 2,3-bis(oleoyloxy)propyl phosphate]
